Our source for the Kd values is patent US20250368648A1, “MULTI-CYCLIC IRAK AND FLT3 INHIBITING COMPOUNDS AND USES THEREOF” (CHILDREN'S HOSPITAL MEDICAL CENTER, priority 2022, published 2025).

Where a chain is given by its changes, count along the chain named.

Experiment [1] has as its target T1, FLT3 D835Y (Homo sapiens, UniProt P36888, D835Y).
T1 construct: purchased DiscoverX (KINOMEscan); host or cells: E. coli (T7 phage) or HEK-293
T1 sequence (P36888 27-993 D835Y): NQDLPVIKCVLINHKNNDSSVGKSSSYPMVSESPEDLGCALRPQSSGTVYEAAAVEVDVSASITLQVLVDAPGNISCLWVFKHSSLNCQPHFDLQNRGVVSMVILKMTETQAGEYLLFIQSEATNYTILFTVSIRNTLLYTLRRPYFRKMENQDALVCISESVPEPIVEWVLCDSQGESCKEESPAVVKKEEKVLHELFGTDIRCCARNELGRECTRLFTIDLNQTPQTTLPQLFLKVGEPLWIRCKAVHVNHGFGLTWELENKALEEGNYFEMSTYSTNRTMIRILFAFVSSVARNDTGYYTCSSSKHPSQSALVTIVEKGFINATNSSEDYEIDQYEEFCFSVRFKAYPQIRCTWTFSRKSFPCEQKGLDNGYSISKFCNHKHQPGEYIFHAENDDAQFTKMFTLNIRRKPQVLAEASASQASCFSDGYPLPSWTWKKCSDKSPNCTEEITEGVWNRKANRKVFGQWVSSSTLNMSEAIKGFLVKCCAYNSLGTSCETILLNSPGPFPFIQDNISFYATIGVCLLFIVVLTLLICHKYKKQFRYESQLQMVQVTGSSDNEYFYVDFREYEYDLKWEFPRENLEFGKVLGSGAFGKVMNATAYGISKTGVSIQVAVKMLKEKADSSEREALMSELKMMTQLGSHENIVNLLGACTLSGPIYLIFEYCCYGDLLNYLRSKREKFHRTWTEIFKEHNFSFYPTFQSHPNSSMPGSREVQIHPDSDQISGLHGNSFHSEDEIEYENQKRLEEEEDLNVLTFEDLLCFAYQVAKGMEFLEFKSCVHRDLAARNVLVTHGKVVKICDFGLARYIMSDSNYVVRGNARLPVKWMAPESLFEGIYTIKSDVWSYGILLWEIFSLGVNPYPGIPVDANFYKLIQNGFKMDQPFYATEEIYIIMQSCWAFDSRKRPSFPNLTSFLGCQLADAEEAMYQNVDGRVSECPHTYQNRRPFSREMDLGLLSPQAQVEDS
Nature of the experiment: DiscoverX KINOMEscan competition binding, FLT3 D835Y. The settings on record: no ATP. From the text: (§1) Kinase binding data were obtained for various exemplary compounds prepared according to Examples 2-15 using the DiscoverX KINOMEscan® active site-directed competition binding site-directed assay protocol described below. […] As a result, the data report thermodynamic interaction affinities (Kd values), rather than IC50 values that are dependent on ATP concentrations. The assay uses a DNA-tagged version of the protein kinase, and an immobilized ligand bound to a solid support. Compounds that directly or indirectly prevent kinase binding to the immobilized ligand reduce the amount of kinase captured on the solid support, which is detected using an ultra-sensitive qPCR method. Affinity constants reported from the assay have been reported to be independent of the immobilized ligand used that is coupled to the solid support (See supplemental information in Fabian, M. A. et. al., (2005) Nat. […] Wodicka, L. […] Biol. 17, 1241-1249.) Kinase-tagged T7 phage strains were prepared in an E. coli host derived from the BL21 strain. E. coli were grown to log-phase and infected with T7 phage and incubated with shaking at 32° C. until lysis. […] Kds were determined using an 11-point 3-fold compound dilution series with three DMSO control points. […] The kinase concentration in the eluates was measured by qPCR. Binding constants (Kds) were calculated with a standard dose-response curve using the Hill equation. […]

Experiment [2] addresses T2, FLT3 (Homo sapiens, UniProt P36888).
T2 sequence (P36888 27-993): T1 sequence (P36888 27-993 D835Y) with Y809D
Kind of experiment: DiscoverX KINOMEscan competition binding, FLT3. Further details: purchased RBC (Reaction Biology) HotSpot assay. The conditions noted are these: no ATP.
Excerpt: as §1

By Kd is commonly meant the equilibrium constant for the complex coming apart. The low end stands for tighter binding, the high end for weaker binding. As to `COc1cc2ncc(-c3nc(N[C@H]4CNCC[C@@H]4F)c(F)cc3F)n2nc1C1CCC1` [Compound 15a, 6-(6-cyclobutyl-7-methoxyimidazo[1,2-b]pyridazin-3-yl)-3,5-difluoro-N-((3S,4S)-4-fluoropiperidin-3-yl)pyridin-2-amine], the dissociation constant Kd in experiment [1] and in experiment [2] was < 0.17 nM each time.
